{"source": "paper PMC10202811", "about": "(Nature Medicine, 2023)", "experiment": "Plasma pharmacokinetics of lorlatinib at steady state (LC-MS/MS, non-compartmental analysis)", "format": "in vivo, human", "conditions": "human; for Cmax: read-out: Cmax; for Tmax: read-out: Tmax", "from_the_text": "Lorlatinib was isolated from human plasma by a liquid-iquid extraction procedure. […] A linear-log trapezoidal method was used [NT] A best-fit method was used to estimate terminal elimination and to extrapolate any plasma concentration versus time profiles to compute [NT].", "key": {"[1]": {"conditions": "in vivo, 115 mg/m2, Cycle 1 Day 1, Cohort B2, 115 mg/m2 per dose"}, "[2]": {"conditions": "in vivo, 115 mg/m2, Cycle 1 Day 1, Cohort A1, 115 mg/m2 per dose, individual patients"}, "[3]": {"conditions": "in vivo, 115 mg/m2, Cycle 1 Day 1, patient N0773, Cohort B2, 115 mg/m2 per dose, Dose 75"}, "[4]": {"conditions": "in vivo, 115 mg/m2, Cycle 1 Day 15, Cohort A1, 115 mg/m2 per dose, individual patients"}, "[5]": {"conditions": "in vivo, 115 mg/m2, Cycle 1 Day 15, patient N0773, Cohort B2, 115 mg/m2 per dose, Dose 75"}, "[6]": {"conditions": "plasma, oral, 45 mg/m2, Cohort A1, 45 mg/m2 per dose, C1D15, Geometric Mean, N 3"}, "[7]": {"conditions": "plasma, oral, 45 mg/m2, Cohort A1, 45 mg/m2 per dose, C1D15, Median, N 3"}, "[8]": {"conditions": "plasma, oral, 45 mg/m2, Cycle 1 Day 1, Cohort A1, 45 mg/m2 per dose, individual patients"}, "[9]": {"conditions": "plasma, oral, 60 mg/m2, Cohort A1, 60 mg/m2 per dose, C1D15, Median, N 3"}}, "note": "Where two headings read alike, the source gives them in different places."}
{"smiles": "C[C@H]1Oc2cc(cnc2N)-c2c(nn(C)c2C#N)CN(C)C(=O)c2ccc(F)cc21", "note": "[Lorlatinib, (10R)-7-amino-12-fluoro-2,10,16-trimethyl-15-oxo-10,15,16,17-tetrahydro-2H-8,4-(metheno)pyrazolo[4,3-h][2,5,11]-benzoxadiazacyclotetradecine-3-carbonitrile]", "values": [{"measurement": "AUC", "setting": "in vivo, 115 mg/m2, Cycle 1 Day 1, Cohort B2, 115 mg/m2 per dose, read-out: AUCall", "result": 17700, "unit": "ng·h/mL"}, {"measurement": "Cmax", "setting": "[1]", "result": 2320, "unit": "ng/mL"}, {"measurement": "Tmax", "setting": "[1]", "result": 1, "unit": "h"}, {"measurement": "AUC(0-t)", "setting": "[2]", "result": 14700, "unit": "ng·h/mL"}, {"measurement": "MRT last", "setting": "[2]", "result": 8.5, "unit": "h"}, {"measurement": "AUC", "setting": "in vivo, 115 mg/m2, Cycle 1 Day 1, Cohort A1, 115 mg/m2 per dose, individual patients, read-out: AUCall", "result": 14700, "unit": "ng·h/mL"}, {"measurement": "Cmax", "setting": "[2]", "result": 1440, "unit": "ng/mL"}, {"measurement": "Tmax", "setting": "[2]", "result": 2, "unit": "h"}, {"measurement": "AUC(0-t)", "setting": "[3]", "result": 10800, "unit": "ng·h/mL"}, {"measurement": "MRT last", "setting": "[3]", "result": 8.24, "unit": "h"}, {"measurement": "AUC", "setting": "in vivo, 115 mg/m2, Cycle 1 Day 1, patient N0773, Cohort B2, 115 mg/m2 per dose, Dose 75, read-out: AUCall", "result": 10800, "unit": "ng·h/mL"}, {"measurement": "Cmax", "setting": "[3]", "result": 1660, "unit": "ng/mL"}, {"measurement": "MRT inf", "setting": "in vivo, 115 mg/m2, Cycle 1 Day 15, Cohort A1, 115 mg/m2 per dose, read-out: MRTINF_obs", "result": 11.7, "unit": "h"}, {"measurement": "MRT inf", "setting": "in vivo, 115 mg/m2, Cycle 1 Day 15, Cohort A1, 115 mg/m2 per dose, read-out: MRTINF_pred", "result": 11.7, "unit": "h"}, {"measurement": "MRT inf", "setting": "in vivo, 115 mg/m2, Cycle 1 Day 15, Cohort B2, 115 mg/m2 per dose, read-out: MRTINF_obs", "result": 13.5, "unit": "h"}, {"measurement": "MRT inf", "setting": "in vivo, 115 mg/m2, Cycle 1 Day 15, Cohort B2, 115 mg/m2 per dose, read-out: MRTINF_pred", "result": 13.5, "unit": "h"}, {"measurement": "Tmax", "setting": "in vivo, 115 mg/m2, Cycle 1 Day 15, Cohort B2, 115 mg/m2 per dose", "result": 1, "unit": "h"}, {"measurement": "AUC(0-t)", "setting": "[4]", "result": 8210, "unit": "ng·h/mL"}, {"measurement": "AUC(0-inf)", "setting": "in vivo, 115 mg/m2, Cycle 1 Day 15, Cohort A1, 115 mg/m2 per dose, individual patients, read-out: AUCINF_obs", "result": 10800, "unit": "ng·h/mL"}, {"measurement": "AUC(0-inf)", "setting": "in vivo, 115 mg/m2, Cycle 1 Day 15, Cohort A1, 115 mg/m2 per dose, individual patients, read-out: AUCINF_pred", "result": 10700, "unit": "ng·h/mL"}, {"measurement": "AUC", "setting": "in vivo, 115 mg/m2, Cycle 1 Day 15, Cohort A1, 115 mg/m2 per dose, individual patients, read-out: AUC_TAU", "result": 8210, "unit": "ng·h/mL"}, {"measurement": "AUC", "setting": "in vivo, 115 mg/m2, Cycle 1 Day 15, Cohort A1, 115 mg/m2 per dose, individual patients, read-out: AUCall", "result": 8210, "unit": "ng·h/mL"}, {"measurement": "Cmax", "setting": "[4]", "result": 1350, "unit": "ng/mL"}, {"measurement": "MRT inf", "setting": "in vivo, 115 mg/m2, Cycle 1 Day 15, Cohort A1, 115 mg/m2 per dose, individual patients, read-out: MRTINF_obs", "result": 15.8, "unit": "h"}, {"measurement": "MRT inf", "setting": "in vivo, 115 mg/m2, Cycle 1 Day 15, Cohort A1, 115 mg/m2 per dose, individual patients, read-out: MRTINF_pred", "result": 15.7, "unit": "h"}, {"measurement": "AUC(0-t)", "setting": "[5]", "result": 5370, "unit": "ng·h/mL"}, {"measurement": "AUC(0-inf)", "setting": "in vivo, 115 mg/m2, Cycle 1 Day 15, patient N0773, Cohort B2, 115 mg/m2 per dose, Dose 75, read-out: AUCINF_obs", "result": 6990, "unit": "ng·h/mL"}, {"measurement": "AUC(0-inf)", "setting": "in vivo, 115 mg/m2, Cycle 1 Day 15, patient N0773, Cohort B2, 115 mg/m2 per dose, Dose 75, read-out: AUCINF_pred", "result": 6860, "unit": "ng·h/mL"}, {"measurement": "AUC", "setting": "in vivo, 115 mg/m2, Cycle 1 Day 15, patient N0773, Cohort B2, 115 mg/m2 per dose, Dose 75, read-out: AUC_TAU", "result": 6950, "unit": "ng·h/mL"}, {"measurement": "AUC", "setting": "in vivo, 115 mg/m2, Cycle 1 Day 15, patient N0773, Cohort B2, 115 mg/m2 per dose, Dose 75, read-out: AUCall", "result": 5370, "unit": "ng·h/mL"}, {"measurement": "Cmax", "setting": "[5]", "result": 1780, "unit": "ng/mL"}, {"measurement": "MRT inf", "setting": "in vivo, 115 mg/m2, Cycle 1 Day 15, patient N0773, Cohort B2, 115 mg/m2 per dose, Dose 75, read-out: MRTINF_obs", "result": 4.18, "unit": "h"}, {"measurement": "MRT inf", "setting": "in vivo, 115 mg/m2, Cycle 1 Day 15, patient N0773, Cohort B2, 115 mg/m2 per dose, Dose 75, read-out: MRTINF_pred", "result": 3.73, "unit": "h"}, {"measurement": "AUC", "setting": "in vivo, 115 mg/m2, steady state, Cohort A1, 115 mg/m^2 QD, (CV), read-out: AUCtau", "result": 8640, "unit": "ng·h/mL"}, {"measurement": "Cmax", "setting": "in vivo, 115 mg/m2, steady state, Cohort A1, 115 mg/m^2 QD, (CV)", "result": 1210, "unit": "ng/mL"}, {"measurement": "Tmax", "setting": "in vivo, 115 mg/m2, steady state, Cohort A1, 115 mg/m^2 QD", "result": 1.5, "unit": "h"}, {"measurement": "AUC", "setting": "in vivo, 115 mg/m2, steady state, Cohort B2 (with topotecan/cyclophosphamide), 115 mg/m^2 QD, (CV), read-out: AUCtau", "result": 7950, "unit": "ng·h/mL"}, {"measurement": "Cmax", "setting": "in vivo, 115 mg/m2, steady state, Cohort B2 (with topotecan/cyclophosphamide), 115 mg/m^2 QD, (CV)", "result": 1460, "unit": "ng/mL"}, {"measurement": "Tmax", "setting": "in vivo, 115 mg/m2, steady state, Cohort B2 (with topotecan/cyclophosphamide), 115 mg/m^2 QD", "result": 1, "unit": "h"}, {"measurement": "AUC", "setting": "in vivo, 150 mg per dose, Cycle 1 Day 1, Cohort A2, 150 mg per dose, read-out: AUCall", "result": 8360, "unit": "ng·h/mL"}, {"measurement": "AUC", "setting": "in vivo, 150 mg per dose, Cycle 1 Day 15, Cohort A2, 150 mg per dose, read-out: AUCall", "result": 8300, "unit": "ng·h/mL"}, {"measurement": "AUC", "setting": "in vivo, 150 mg, Cycle 1 Day 15, Cohort A2, 150 mg per dose, read-out: AUC_TAU", "result": 8300, "unit": "ng·h/mL"}, {"measurement": "AUC", "setting": "plasma, oral, 45 mg/m2, Cohort A1, 45 mg/m2 per dose, C1D15, Geometric Mean, N 3, read-out: AUC_TAU", "result": 2470, "unit": "ng·h/mL"}, {"measurement": "Cmax", "setting": "[6]", "result": 355, "unit": "ng/mL"}, {"measurement": "Tmax", "setting": "[6]", "result": 1.26, "unit": "h"}, {"measurement": "AUC", "setting": "plasma, oral, 45 mg/m2, Cohort A1, 45 mg/m2 per dose, C1D15, Median, N 3, read-out: AUC_TAU", "result": 3220, "unit": "ng·h/mL"}, {"measurement": "Cmax", "setting": "[7]", "result": 287, "unit": "ng/mL"}, {"measurement": "Tmax", "setting": "[7]", "result": 1, "unit": "h"}, {"measurement": "Tmax", "setting": "plasma, oral, 45 mg/m2, Cohort A1, 45 mg/m2 per dose, C1D15, individual patient", "result": 1, "unit": "h"}, {"measurement": "MRT last", "setting": "[8]", "result": 7.18, "unit": "h"}, {"measurement": "Tmax", "setting": "[8]", "result": 1, "unit": "h"}, {"measurement": "Tmax", "setting": "plasma, oral, 45 mg/m2, Cycle 1 Day 15, Cohort A1, 45 mg/m2 per dose, individual patients", "result": 1, "unit": "h"}, {"measurement": "AUC", "setting": "plasma, oral, 45 mg/m^2, steady state (cycle 1, day 15), Cohort A1, 45 mg/m^2 QD, (CV), read-out: AUCtau", "result": 2470, "unit": "ng·h/mL"}, {"measurement": "Cmax", "setting": "plasma, oral, 45 mg/m^2, steady state (cycle 1, day 15), Cohort A1, 45 mg/m^2 QD, (CV)", "result": 354, "unit": "ng/mL"}, {"measurement": "Tmax", "setting": "plasma, oral, 45 mg/m^2, steady state (cycle 1, day 15), Cohort A1, 45 mg/m^2 QD", "result": 1, "unit": "h"}, {"measurement": "AUC", "setting": "plasma, oral, 60 mg/m2, Cohort A1, 60 mg/m2 per dose, C1D15, Geometric Mean, N 3, read-out: AUC_TAU", "result": 3930, "unit": "ng·h/mL"}, {"measurement": "Cmax", "setting": "plasma, oral, 60 mg/m2, Cohort A1, 60 mg/m2 per dose, C1D15, Geometric Mean, N 3", "result": 492, "unit": "ng/mL"}, {"measurement": "AUC", "setting": "plasma, oral, 60 mg/m2, Cohort A1, 60 mg/m2 per dose, C1D15, Median, N 3, read-out: AUC_TAU", "result": 4140, "unit": "ng·h/mL"}, {"measurement": "Cmax", "setting": "[9]", "result": 558, "unit": "ng/mL"}, {"measurement": "Tmax", "setting": "[9]", "result": 2, "unit": "h"}, {"measurement": "AUC", "setting": "plasma, oral, 60 mg/m2, Cohort A1, 60 mg/m2 per dose, C1D15, individual patient, read-out: AUC_TAU", "result": 4140, "unit": "ng·h/mL"}]}
